{
  "source": "patent US10227350B2",
  "about": "(Gilead Sciences, Inc., priority 2016, dated 2019)",
  "data": [
    {"target": "PI3Kβ (Homo sapiens (Human), UniProt P42338)", "sequence (P42338 whole entry, the tested form may be a part)": "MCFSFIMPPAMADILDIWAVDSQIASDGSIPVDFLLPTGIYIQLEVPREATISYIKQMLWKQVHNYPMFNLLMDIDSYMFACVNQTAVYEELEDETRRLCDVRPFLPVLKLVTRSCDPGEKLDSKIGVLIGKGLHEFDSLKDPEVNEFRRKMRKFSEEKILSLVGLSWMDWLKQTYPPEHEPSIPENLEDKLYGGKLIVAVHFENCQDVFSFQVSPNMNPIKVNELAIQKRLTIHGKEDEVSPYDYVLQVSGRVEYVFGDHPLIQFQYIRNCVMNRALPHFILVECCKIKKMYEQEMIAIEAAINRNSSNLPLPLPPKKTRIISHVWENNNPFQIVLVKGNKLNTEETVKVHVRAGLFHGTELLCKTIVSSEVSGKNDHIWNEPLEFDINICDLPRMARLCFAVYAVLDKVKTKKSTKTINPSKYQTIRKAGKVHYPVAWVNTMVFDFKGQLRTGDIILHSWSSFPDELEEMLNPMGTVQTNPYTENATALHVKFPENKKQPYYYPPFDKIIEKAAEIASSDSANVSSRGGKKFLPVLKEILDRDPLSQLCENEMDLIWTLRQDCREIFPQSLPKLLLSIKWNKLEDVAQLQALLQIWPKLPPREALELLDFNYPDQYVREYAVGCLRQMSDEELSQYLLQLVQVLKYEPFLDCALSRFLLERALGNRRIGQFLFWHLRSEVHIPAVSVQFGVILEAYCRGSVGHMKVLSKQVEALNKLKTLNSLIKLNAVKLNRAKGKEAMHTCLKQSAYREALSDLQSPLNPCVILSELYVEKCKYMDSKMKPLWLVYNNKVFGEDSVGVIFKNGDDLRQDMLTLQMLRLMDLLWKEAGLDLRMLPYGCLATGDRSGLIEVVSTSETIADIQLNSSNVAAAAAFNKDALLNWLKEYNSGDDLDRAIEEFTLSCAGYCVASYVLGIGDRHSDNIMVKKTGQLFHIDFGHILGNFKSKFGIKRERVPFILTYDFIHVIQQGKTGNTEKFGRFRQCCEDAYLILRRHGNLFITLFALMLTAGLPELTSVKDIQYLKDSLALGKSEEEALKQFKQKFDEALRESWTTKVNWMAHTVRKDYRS", "sequence (P27986 whole entry partner, the tested form may be a part)": "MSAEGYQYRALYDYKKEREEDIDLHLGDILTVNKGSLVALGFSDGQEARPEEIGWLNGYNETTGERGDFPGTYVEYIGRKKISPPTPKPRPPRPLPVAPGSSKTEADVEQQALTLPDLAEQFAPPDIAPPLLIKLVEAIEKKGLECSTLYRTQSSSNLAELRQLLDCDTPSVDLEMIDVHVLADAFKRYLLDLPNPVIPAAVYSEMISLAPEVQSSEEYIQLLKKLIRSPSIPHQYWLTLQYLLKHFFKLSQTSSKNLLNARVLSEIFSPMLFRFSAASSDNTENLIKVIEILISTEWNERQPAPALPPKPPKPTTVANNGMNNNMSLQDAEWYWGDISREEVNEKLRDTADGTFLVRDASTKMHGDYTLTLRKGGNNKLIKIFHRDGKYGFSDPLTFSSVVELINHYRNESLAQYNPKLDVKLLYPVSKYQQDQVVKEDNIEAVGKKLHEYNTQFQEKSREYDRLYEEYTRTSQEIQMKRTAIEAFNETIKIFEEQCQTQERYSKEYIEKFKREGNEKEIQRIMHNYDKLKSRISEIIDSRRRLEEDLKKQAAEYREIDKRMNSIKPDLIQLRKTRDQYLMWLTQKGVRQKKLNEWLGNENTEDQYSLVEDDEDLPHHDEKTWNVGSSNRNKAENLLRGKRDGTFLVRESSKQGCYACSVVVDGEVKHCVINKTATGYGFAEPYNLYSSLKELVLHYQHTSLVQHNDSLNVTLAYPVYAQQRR", "test": "TR-FRET enzymatic activity assay, PI3Kβ", "format": "biochemical", "settings": "2× Km ATP, 2 μM PIP2, 30 minutes at 25° C., read-out: IC50-PIP-Beta", "summary_of_the_method": "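Purified recombinant heterodimeric PI3Kβ; PIP3 formation read by TR-FRET as competition with fluorescent tracer for GRP-1 PH domain binding. Compounds incubated 30 min at 25 °C.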", "units": {"IC50": "nM"}, "values": [
      {"smiles": "Cc1nc2c(-c3nnc[nH]3)cc(-c3ccnc(N)c3F)cc2n1-c1c(Cl)cnc2c(F)cccc12", "note": "[Example 92, 4-[3-(3-chloro-8-fluoroquinolin-4-yl)-2-methyl-7-(4H-1,2,4-triazol-3-yl)benzimidazol-5-yl]-3-fluoropyridin-2-amine]", "IC50": 51},
      {"smiles": "Cc1nc2c(-c3nnc[nH]3)cc(-c3ccnc(N)c3F)cc2n1-c1ccnc2cccc(F)c12", "note": "[Example 93, 3-fluoro-4-[3-(5-fluoroquinolin-4-yl)-2-methyl-7-(4H-1,2,4-triazol-3-yl)benzimidazol-5-yl]pyridin-2-amine]", "IC50": 5},
      {"smiles": "CCc1nc2c(-c3nnc[nH]3)cc(-c3ccnc(N)c3F)cc2n1-c1ccnc2cccc(F)c12", "note": "[Example 94, 4-[2-ethyl-3-(5-fluoroquinolin-4-yl)-7-(4H-1,2,4-triazol-3-yl)benzimidazol-5-yl]-3-fluoropyridin-2-amine]", "IC50": 8},
      {"smiles": "CCc1nc2c(-c3nnc[nH]3)cc(-c3ccnc(N)c3F)cc2n1-c1ccnc2c(F)ccc(F)c12", "note": "[Example 95, 4-[3-(5,8-difluoroquinolin-4-yl)-2-ethyl-7-(4H-1,2,4-triazol-3-yl)benzimidazol-5-yl]-3-fluoropyridin-2-amine]", "IC50": 5},
      {"smiles": "Nc1nccc(-c2cc(-c3nnc[nH]3)c3nc(CC4CC4)n(-c4ccnc5c(F)ccc(F)c45)c3c2)c1F", "note": "[Example 96, 4-[2-(cyclopropylmethyl)-3-(5,8-difluoroquinolin-4-yl)-7-(4H-1,2,4-triazol-3-yl)benzimidazol-5-yl]-3-fluoropyridin-2-amine]", "IC50": 7},
      {"smiles": "Cc1nnc(-c2cc(-c3ccnc(N)c3F)cc3c2nc(C)n3-c2ccnc3c(F)ccc(F)c23)[nH]1", "note": "[Example 97, 4-[3-(5,8-difluoroquinolin-4-yl)-2-methyl-7-(5-methyl-4H-1,2,4-triazol-3-yl)benzimidazol-5-yl-]3-fluoropyridin-2-amine]", "IC50": 31},
      {"smiles": "Cc1nnc(-c2cc(-c3ccnc(N)c3F)cc3c2nc(C)n3-c2ccnc3c(Cl)ccc(F)c23)[nH]1", "note": "[Example 98, 4-[3-(8-chloro-5-fluoroquinolin-4-yl)-2-methyl-7-(5-methyl-4H-1,2,4-triazol-3-yl)benzimidazol-5-yl]-3-fluoropyridin-2-amine]", "IC50": 6},
      {"smiles": "Cc1nc2c(-c3nnc[nH]3)cc(-c3ccnc(N)c3F)cc2n1-c1ccnc2c(F)ccc(Cl)c12", "note": "[Example 99, 4-[3-(5-chloro-8-fluoroquinolin-4-yl)-2-methyl-7-(4H-1,2,4-triazol-3-yl)benzimidazol-5-yl]-3-fluoropyridin-2-amine]", "IC50": 29},
      {"smiles": "Cc1nc2c(-c3nnc[nH]3)cc(-c3c(F)cnc(N)c3F)cc2n1-c1ccnc2c(F)ccc(F)c12", "note": "[Example 100, 4-[3-(5,8-difluoroquinolin-4-yl)-2-methyl-7-(4H-1,2,4-triazol-3-yl)benzimidazol-5-yl]-3,5-difluoropyridin-2-amine]", "IC50": 320},
      {"smiles": "Cc1c(-c2cc(-c3nnc[nH]3)c3nc(C)n(-c4ccnc5c(F)ccc(F)c45)c3c2)ccnc1N", "note": "[Example 101, 4-[3-(5,8-difluoroquinolin-4-yl)-2-methyl-7-(4H-1,2,4-triazol-3-yl)benzimidazol-5-yl]-3-methylpyridin-2-amine]", "IC50": 2800},
      {"smiles": "Nc1nccc(-c2cc(-c3nnc[nH]3)c3ncn(-c4ccnc5c(F)ccc(F)c45)c3c2)c1F", "note": "[Example 102, 4-[3-(5,8-difluoroquinolin-4-yl)-7-(4H-1,2,4-triazol-3-yl)benzimidazol-5-yl]-3-fluoropyridin-2-amine]", "IC50": 11},
      {"smiles": "Cc1nc2c(-c3nnc[nH]3)cc(-c3ccnc(C#N)c3)cc2n1-c1ccnc2cc(F)cc(F)c12", "note": "[Example 143, 4-(1-(5,7-difluoroquinolin-4-yl)-2-methyl-4-(4H-1,2,4-triazol-3-yl)-1H-benzo[d]imidazol-6-yl)picolinonitrile]", "IC50": 6},
      {"smiles": "Cc1nc2c(-c3nnc[nH]3)cc(-c3ccnc(C#N)c3)cc2n1-c1ccnc2c(F)ccc(Cl)c12", "note": "[Example 144, 4-(1-(5-chloro-8-fluoroquinolin-4-yl)-2-methyl-4-(4H-1,2,4-triazol-3-yl)-1H-benzo[d]imidazol-6-yl)picolinonitrile]", "IC50": 18},
      {"smiles": "Cc1nc2c(-c3nnc[nH]3)cc(-c3ccnc(C#N)c3)cc2n1-c1ccnc2c(Cl)ccc(Cl)c12", "note": "[Example 145, 4-(1-(5,8-dichloroquinolin-4-yl)-2-methyl-4-(4H-1,2,4-triazol-3-yl)-1H-benzo[d]imidazol-6-yl)picolinonitrile]", "IC50": 2},
      {"smiles": "Cc1nc2c(-c3nnc[nH]3)cc(-c3ccnc(C#N)c3)cc2n1-c1ccnc2cccc(Cl)c12", "note": "[Example 146, 4-(1-(5-chloroquinolin-4-yl)-2-methyl-4-(4H-1,2,4-triazol-3-yl)-1H-benzo[d]imidazol-6-yl)picolinonitrile]", "IC50": 200},
      {"smiles": "Cc1nc2c(-c3nnc[nH]3)cc(-c3ccnc(C#N)c3)cc2n1-c1ccnc2cccc(F)c12", "note": "[Example 147, 4-(1-(5-fluoroquinolin-4-yl)-2-methyl-4-(4H-1,2,4-triazol-3-yl)-1H-benzo[d]imidazol-6-yl)picolinonitrile]", "IC50": 4},
      {"smiles": "Cc1nc2c(-c3nnc[nH]3)cc(-c3ccnc(C#N)c3)cc2n1-c1ccnc2c(F)cccc12", "note": "[Example 148, 4-(1-(8-fluoroquinolin-4-yl)-2-methyl-4-(4H-1,2,4-triazol-3-yl)-1H-benzo[d]imidazol-6-yl)picolinonitrile]", "IC50": 16},
      {"smiles": "Cc1nc2c(-c3nnc[nH]3)cc(-c3ccnc(C#N)c3)cc2n1-c1ccnc2c(Cl)cccc12", "note": "[Example 149, 4-(1-(8-chloroquinolin-4-yl)-2-methyl-4-(4H-1,2,4-triazol-3-yl)-1H-benzo[d]imidazol-6-yl)picolinonitrile]", "IC50": 4},
      {"smiles": "Cc1nnc(-c2cc(-c3ccnc(C#N)c3)cc3c2nc(C)n3-c2ccnc3c(Cl)ccc(F)c23)[nH]1", "note": "[Example 150, 4-(1-(8-chloro-5-fluoroquinolin-4-yl)-2-methyl-4-(5-methyl-4H-1,2,4-triazol-3-yl)-1H-benzo[d]imidazol-6-yl)picolinonitrile]", "IC50": 13},
      {"smiles": "Cc1nnc(-c2cc(-c3ccnc(C#N)c3)cc3c2nc(C)n3-c2ccnc3c(F)ccc(F)c23)[nH]1", "note": "[Example 151, 4-(1-(5,8-difluoroquinolin-4-yl)-2-methyl-4-(5-methyl-4H-1,2,4-triazol-3-yl)-1H-benzo[d]imidazol-6-yl)picolinonitrile]", "IC50": 80},
      {"smiles": "Cc1nc2c(-c3nnc[nH]3)cc(-c3ccnc(C#N)n3)cc2n1-c1ccnc2c(F)ccc(F)c12", "note": "[Example 152, 4-(1-(5,8-difluoroquinolin-4-yl)-2-methyl-4-(4H-1,2,4-triazol-3-yl)-1H-benzo[d]imidazol-6-yl)pyrimidine-2-carbonitrile]", "IC50": 10},
      {"smiles": "Cc1nc2c(-c3nnc[nH]3)cc(-c3ccnc(C#N)c3)cc2n1-c1ccnc2c(Cl)ccc(F)c12", "note": "[Example 153, 4-(1-(8-chloro-5-fluoroquinolin-4-yl)-2-methyl-4-(4H-1,2,4-triazol-3-yl)-1H-benzo[d]imidazol-6-yl)picolinonitrile]", "IC50": 7},
      {"smiles": "COc1nccc(-c2cc(-c3nnc[nH]3)c3nc(C)n(-c4ccnc5c(F)ccc(F)c45)c3c2)n1", "note": "[Example 154, 5,8-difluoro-4-(6-(2-methoxypyrimidin-4-yl)-2-methyl-4-(4H-1,2,4-triazol-3-yl)-1H-benzo[d]imidazol-1-yl)quinoline]", "IC50": 9},
      {"smiles": "Cc1cc(-c2cc(-c3nnc[nH]3)c3nc(C)n(-c4ccnc5c(F)ccc(F)c45)c3c2)ncn1", "note": "[Example 155, 5,8-difluoro-4-(2-methyl-6-(6-methylpyrimidin-4-yl)-4-(4H-1,2,4-triazol-3-yl)-1H-benzo[d]imidazol-1-yl)quinoline]", "IC50": 62},
      {"smiles": "Cc1nccc(-c2cc(-c3nnc[nH]3)c3nc(C)n(-c4ccnc5c(F)ccc(F)c45)c3c2)n1", "note": "[Example 156, 5,8-difluoro-4-(2-methyl-6-(2-methylpyrimidin-4-yl)-4-(4H-1,2,4-triazol-3-yl)-1H-benzo[d]imidazol-1-yl)quinoline]", "IC50": 12},
      {"smiles": "Cc1nc2c(C(N)=O)cc(-c3ncnc(N)c3C#N)cc2n1-c1ccnc2c(F)ccc(F)c12", "note": "[Example 157, 6-(6-amino-5-cyanopyrimidin-4-yl)-1-(5,8-difluoroquinolin-4-yl)-2-methyl-1H-benzo[d]imidazole-4-carboxamide]", "IC50": 460},
      {"smiles": "Cc1nc2c(-c3nnc[nH]3)cc(-c3ccnc(Cl)c3)cc2n1-c1ccnc2c(F)ccc(F)c12", "note": "[Example 158, 4-(6-(2-chloropyridin-4-yl)-2-methyl-4-(4H-1,2,4-triazol-3-yl)-1H-benzo[d]imidazol-1-yl)-5,8-difluoroquinoline]", "IC50": 7},
      {"smiles": "Cc1nc2c(-c3nnc[nH]3)cc(-c3ccnc(F)c3)cc2n1-c1ccnc2c(F)ccc(F)c12", "note": "[Example 159, 5,8-difluoro-4-(6-(2-fluoropyridin-4-yl)-2-methyl-4-(4H-1,2,4-triazol-3-yl)-1H-benzo[d]imidazol-1-yl)quinoline]", "IC50": 5},
      {"smiles": "Cc1nc2c(-c3nnc[nH]3)cc(-c3ccnc(N)c3F)cc2n1-c1ccnc2cc(F)cc(F)c12", "note": "[Example 160, 4-(1-(5,7-difluoroquinolin-4-yl)-2-methyl-4-(4H-1,2,4-triazol-3-yl)-1H-benzo[d]imidazol-6-yl)-3-fluoropyridin-2-amine]", "IC50": 7},
      {"smiles": "Cc1nc2c(-c3nnc[nH]3)cc(-c3ccnc(N)c3F)cc2n1-c1ccnc2c(Cl)ccc(Cl)c12", "note": "[Example 161, 4-(1-(5,8-dichloroquinolin-4-yl)-2-methyl-4-(4H-1,2,4-triazol-3-yl)-1H-benzo[d]imidazol-6-yl)-3-fluoropyridin-2-amine]", "IC50": 6},
      {"smiles": "Nc1nccc(-c2cc(-c3nnc[nH]3)c3ncn(-c4cc(N5CCNCC5)nc5ccccc45)c3c2)c1F", "note": "[Example 162, 3-fluoro-4-(1-(2-(piperazin-1-yl)quinolin-4-yl)-4-(4H-1,2,4-triazol-3-yl)-1H-benzo[d]imidazol-6-yl)pyridin-2-amine]", "IC50": 10},
      {"smiles": "Nc1nccc(-c2ccc3ncn(-c4cc(N5CCNCC5)nc5ccccc45)c3c2)c1F", "note": "[Example 163, 3-fluoro-4-(1-(2-(piperazin-1-yl)quinolin-4-yl)-1H-benzo[d]imidazol-6-yl)pyridin-2-amine]", "IC50": 120}
    ]}
  ]
}
